This note sets out measurements from patent US7763615B2, “Ecteinascidin analogs for use as antitumour agents” (priority 2001, dated 2010).

≈ marks a conversion by molar mass, not a printed value.

Series [1] deals with NRK-52E, normal rat kidney cells. To be noted: 24 h.
A further series in a line: physchem. To be noted: pH 7.4, aqueous buffer, Solubility Dulbecco's PBS pH 7.4.
The subject of a further series is HT29. Kind of series: cells. In kind it is cell-based. To be noted: Homo sapiens, HT-29, 48 h. An outline of the steps: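 Cells plated at 5×10^3 per well; 18 h later, test samples added across 10 to 10^−8 μg/ml; incubation continued 48 h at 37° C, 5% CO2. Cells then fixed with cold TCA, stained with SRB, dye solubilised in Tris, and optical density measured at 490 nm.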

The solubility is how much of the substance goes into solution per volume. Higher therefore signals a readily soluble substance. The GI50 is the concentration that inhibits growth by half. Low values mean greater sensitivity of the cells, high ones lower sensitivity of the cells. `COc1c(C)cc2c(c1O)[C@@H]1C3[C@@H]4SC[C@]5(NCCc6c5[nH]c5c(C)cccc65)C(=O)COC[C@@H](c5c6c(c(C)c(OC(C)=O)c54)OCO6)N3[C@@H](O)[C@H](C2)N1C` (some centres unmarked) [Compound 36] displayed a Kidney in series [1] of 3.56E−07. The molecule further yielded a solubility in the series “physchem” of 26 µM (≈ 20.4 µg/mL). In the series with HT29 (HT29, 48 hours exposure, SRB), this molecule registered a concentration for 50% growth inhibition (GI50) of 61.8 nM and an IC (TGI) of 187 nM. For the same molecule, the CC50 in the series with HT29 (read-out: LC50, HT29, 48 hours exposure, SRB) was 13000 nM.
